Test system: Sphaerotheca fuliginea
Assay: Protective activity against mildew of cucumbers caused by Sphaerotheca fuliginea
Format: in vivo
Conditions: inoculated 20 hours after spraying, evaluated after 7 days
Procedure: Evaluation was carried out by determining the infected leaf areas in percent. These percentages were converted into efficacies. The efficacy (W) was calculated as follows using Abbot's formula:
[formula] • α corresponds to the fungal infection of the treated plants in % and • β corresponds to the fungal infection of the untreated (control) plants in %
An efficacy of 0 means that the infection level of the treated plants corresponds to that of the untreated control plants; an efficacy of 100 means that the treated plants were not infected.
20 hours after the spray coating had dried on, the plants were inoculated with an aqueous spore suspension of mildew of cucumbers (Sphaerotheca fuliginea). The plants were then cultivated in a greenhouse at 20-24° C. and 60-80% relative atmospheric humidity for 7 days. The extent of mildew development was then determined visually in % infection of the cotyledon area.
The visually determined values for the percentage of infected leaf areas were converted into efficacies in % of the untreated control. An efficacy of 0 means the same degree of infection as the untreated control, an efficacy of 100 means 0% infection.

[1] = 0.015 ppm active compound in the spray liquor
[2] = 0.06 ppm active compound in the spray liquor
[3] = 0.25 ppm active compound in the spray liquor
[4] = 1 ppm active compound in the spray liquor

Structure (SMILES) | Efficacy in % of the untreated control [1] | Efficacy in % of the untreated control [2] | Efficacy in % of the untreated control [3] | Efficacy in % of the untreated control [4] | Efficacy in % of the untreated control (4 ppm active compound in the spray liquor)
CN1COCN(Cc2cnc(Cl)s2)/C1=N\[N+](=O)[O-] [Compound IV, thiamethoxam] | 0% | 0% | 0% | 0% | 0%
CCOP(=S)(OCC)Oc1nc(Cl)c(Cl)cc1Cl [Compound III, chlorpyrifos] | 0% | 0% | 0% |  | 
OC(Cc1ccccc1Cl)(Cn1nc[nH]c1=S)C1(Cl)CC1 (stereo not drawn) [Compound I, 2-[2-(1-chlorocyclopropyl)-3-(2-chlorophenyl)-2-hydroxypropyl]-2,4-dihydro-[1,2,4]-triazole-3-thione] | 0% | 0% | 5% |  | 
N#Cc1nn(-c2c(Cl)cc(C(F)(F)F)cc2Cl)c(N)c1[S+]([O-])C(F)(F)F (stereo not drawn) [Compound II, fipronil] | 0% | 0% | 0% | 0% | 
